Measurements from patent US20150065709A1, “Aminoquinazoline Derivative And Use Thereof In Preparing Anti-Malignant Tumor Medicament” (METABOMICS, INC, priority 2012, published 2015).

Experiments:
[1] = biological target: EGFR^L858R (Homo sapiens, UniProt P00533, L858R); experiment: Caliper Mobility Shift Assay, mutant EGFR kinase; type: biochemical; details: read-out: Inhibition of Kinase Activity (IC50, nM) EGFR^L858R
[2] = biological target: EGFR^L858R/T790M (Homo sapiens, UniProt P00533, L858R/T790M); experiment: Caliper Mobility Shift Assay, double mutant EGFR kinase; type: biochemical; details: read-out: Inhibition of Kinase Activity (IC50, nM) EGFR^L858R/T790M
Procedure: Half maximal inhibitory concentration IC50 (the concentration of a compound that is required for 50% inhibition of the activity of an enzyme) was tested based on an immobilized enzyme mixing with a specific substrate and the test compounds in different concentrations. The used test method was Caliper Mobility Shift Assay. […] […].
According to the same test method, the inhibitory effects of the compound of Formula Ie on mutant EGFR kinases were tested, including single mutant EGFR^LS58R, EGFR^T790M and double mutant EGFR^L858R/T790M kinases.

[3] = tested on: A431; experiment: Inhibition of tumor cells, MTS method; type: cell-based; details: Homo sapiens, A-431, 72 hours
Procedure: (§1) (1) Compounds: in vitro studies the test compounds was dissolved in 100% DMSO and diluted until the final concentration of DMSO was 0.1%. The 0.1% (v/v) DMSO was added into culture medium as solvent control. 9 concentration gradients were tested and each gradient was repeated twice. (2) Tumor cell lines: the tumor cell lines were cultivated in RPMI10 culture medium containing 10% fetal calf serum in incubator at 37° C. in a 5% CO2 air incubator. The tested tumor cell lines were: BT474, MDA-MB-231, SK-Br-3, A431, H292, H1975, HCC827, A549, H1650 and H1734. (3) MTS method: cells were seeded into 96-well plate to give a density of about 3000 cells per well, and incubated overnight in a humidified incubator at 37° C. In the next day, the test compounds were added to the wells and further incubated for 72 hours. The cell activity was detected using MTS. IC50 was calculated (the concentration of a compound that is required for 50% inhibition of the cell growth versus the DMSO control group, using nonlinear regression analysis of software GraphPad Prism). […] In a 96-well plate, each test compound was tested at 9 dosage concentrations and each dosage was made in triplicate. Samples were added in 100 μL/well. Cell control and negative control wells contained diluents instead of compounds. Except the negative control well, 100 μL cell suspension of complete medium was added into each test well, wherein corresponding cell numbers were included to assure that the cells in cell control well just cover the bottom of the well as the required incubation time was reached. The plate was incubated in a CO2 incubator at 37° C. for 48 hours. The liquid in test wells was removed by pipetting. 100 μL CCK-8 (Cell counting Kit-8, purchased from DOJINDO Molecular Technologies) detection liquid (containing 10% CCK-8, 5% FBS corresponding medium) was added into each test well, then the plate was incubated in a CO2 incubator under at 37° C. for 3 hours. OD value was detected by ELIASA at A450 nm. Cell viability percentage (%)=(O.D. test compound-O.D. blank)/(O.D. control-O.D. blank)×100. Mean value was calculated for each 3 repeated wells, and IC50 was calculated using nonlinear regression (fitted curve) data analysis method.

[4] = tested on: A549; experiment: Inhibition of tumor cells, MTS method; type: cell-based; details: Homo sapiens, 72 hours
Procedure: as §1

[5] = tested on: BT474; experiment: Inhibition of tumor cells, MTS method; type: cell-based; details: Homo sapiens, BT-474, 72 hours
Procedure: as §1

[6] = tested on: H1650; experiment: Inhibition of tumor cells, MTS method; type: cell-based; details: Homo sapiens, NCI-H1650, 72 hours
Procedure: as §1

[7] = tested on: H1734; experiment: Inhibition of tumor cells, MTS method; type: cell-based; details: Homo sapiens, NCI-H1734, 72 hours
Procedure: as §1

[8] = tested on: H1975; experiment: Inhibition of tumor cells, MTS method; type: cell-based; details: Homo sapiens, NCI-H1975, 72 hours
Procedure: as §1

[9] = tested on: H292; experiment: Inhibition of tumor cells, MTS method; type: cell-based; details: Homo sapiens, NCI-H292, 72 hours
Procedure: as §1

[10] = tested on: HCC827; experiment: Inhibition of tumor cells, MTS method; type: cell-based; details: Homo sapiens, 72 hours
Procedure: as §1

[11] = tested on: SK-Br-3; experiment: Inhibition of tumor cells, MTS method; type: cell-based; details: Homo sapiens, 72 hours
Procedure: as §1

[12] = Long-term toxicity experiment (28 days) in rats; type: in vivo; details: for toxicity reaction: po
Procedure: Experiment Animals: rats, male, 6-8 weeks of age, body weight: 180-250 g; dogs, male, about 24 months, body weight: 7-10 kg.
Preparation of sample: in rat's experiments the mixed formulation powder of the compound Ie was formulated into 0.1, 0.3 and 1 mg/mL homogeneous suspension for use; administration route: oral administration; […]. In dog's experiments the tablets of compound Ie were fed to dogs. […].
Sample collection: blood was collected at the time points of 1, 10, 20 and 28 days respectively, about 120-200 μL whole blood was collected from 3 animals at each time point. Blood was collected at 1 h, 4 h, 8 h and 24 h after administration.
Sample analysis: the collected samples were detected by LC-MS/MS, and the instrument model was SHIMADZU20 A-API4000.
Pharmacokinetic data analysis: the obtained plasma concentration data were fitted and calculated using WinNolin according to non-compartment model.

Chain of EGFR^L858R/T790M (P00533 25-1210 T790M/L858R): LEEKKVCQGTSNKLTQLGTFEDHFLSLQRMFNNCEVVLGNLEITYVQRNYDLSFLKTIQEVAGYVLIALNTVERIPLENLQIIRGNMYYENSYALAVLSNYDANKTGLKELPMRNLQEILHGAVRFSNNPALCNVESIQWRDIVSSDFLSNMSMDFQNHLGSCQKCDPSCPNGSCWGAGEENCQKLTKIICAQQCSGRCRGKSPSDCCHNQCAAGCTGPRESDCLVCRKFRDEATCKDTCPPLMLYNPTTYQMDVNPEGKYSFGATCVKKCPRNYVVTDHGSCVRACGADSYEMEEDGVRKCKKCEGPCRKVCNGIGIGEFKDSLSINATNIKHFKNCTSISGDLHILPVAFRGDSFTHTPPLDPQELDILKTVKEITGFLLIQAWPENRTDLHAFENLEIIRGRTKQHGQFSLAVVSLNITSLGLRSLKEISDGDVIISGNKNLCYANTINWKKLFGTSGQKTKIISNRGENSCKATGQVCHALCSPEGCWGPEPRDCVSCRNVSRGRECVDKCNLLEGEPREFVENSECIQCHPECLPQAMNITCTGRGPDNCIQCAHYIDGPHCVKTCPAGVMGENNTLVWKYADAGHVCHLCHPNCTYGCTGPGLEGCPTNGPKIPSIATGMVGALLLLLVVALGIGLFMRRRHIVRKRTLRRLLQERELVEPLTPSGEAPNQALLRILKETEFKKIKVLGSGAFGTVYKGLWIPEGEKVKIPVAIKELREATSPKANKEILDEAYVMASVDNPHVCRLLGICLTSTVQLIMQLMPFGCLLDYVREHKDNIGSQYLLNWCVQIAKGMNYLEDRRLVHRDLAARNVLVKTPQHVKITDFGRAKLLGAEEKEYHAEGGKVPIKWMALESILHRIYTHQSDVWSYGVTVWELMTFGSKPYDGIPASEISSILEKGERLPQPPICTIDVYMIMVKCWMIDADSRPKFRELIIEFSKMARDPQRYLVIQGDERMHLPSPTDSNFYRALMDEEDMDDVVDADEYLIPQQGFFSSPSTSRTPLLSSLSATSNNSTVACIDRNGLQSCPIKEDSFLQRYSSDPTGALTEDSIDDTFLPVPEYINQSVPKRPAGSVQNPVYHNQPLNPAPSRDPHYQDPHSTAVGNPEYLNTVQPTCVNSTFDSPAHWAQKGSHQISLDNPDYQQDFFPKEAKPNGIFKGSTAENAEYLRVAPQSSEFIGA
Chain of EGFR^L858R (P00533 25-1210 L858R): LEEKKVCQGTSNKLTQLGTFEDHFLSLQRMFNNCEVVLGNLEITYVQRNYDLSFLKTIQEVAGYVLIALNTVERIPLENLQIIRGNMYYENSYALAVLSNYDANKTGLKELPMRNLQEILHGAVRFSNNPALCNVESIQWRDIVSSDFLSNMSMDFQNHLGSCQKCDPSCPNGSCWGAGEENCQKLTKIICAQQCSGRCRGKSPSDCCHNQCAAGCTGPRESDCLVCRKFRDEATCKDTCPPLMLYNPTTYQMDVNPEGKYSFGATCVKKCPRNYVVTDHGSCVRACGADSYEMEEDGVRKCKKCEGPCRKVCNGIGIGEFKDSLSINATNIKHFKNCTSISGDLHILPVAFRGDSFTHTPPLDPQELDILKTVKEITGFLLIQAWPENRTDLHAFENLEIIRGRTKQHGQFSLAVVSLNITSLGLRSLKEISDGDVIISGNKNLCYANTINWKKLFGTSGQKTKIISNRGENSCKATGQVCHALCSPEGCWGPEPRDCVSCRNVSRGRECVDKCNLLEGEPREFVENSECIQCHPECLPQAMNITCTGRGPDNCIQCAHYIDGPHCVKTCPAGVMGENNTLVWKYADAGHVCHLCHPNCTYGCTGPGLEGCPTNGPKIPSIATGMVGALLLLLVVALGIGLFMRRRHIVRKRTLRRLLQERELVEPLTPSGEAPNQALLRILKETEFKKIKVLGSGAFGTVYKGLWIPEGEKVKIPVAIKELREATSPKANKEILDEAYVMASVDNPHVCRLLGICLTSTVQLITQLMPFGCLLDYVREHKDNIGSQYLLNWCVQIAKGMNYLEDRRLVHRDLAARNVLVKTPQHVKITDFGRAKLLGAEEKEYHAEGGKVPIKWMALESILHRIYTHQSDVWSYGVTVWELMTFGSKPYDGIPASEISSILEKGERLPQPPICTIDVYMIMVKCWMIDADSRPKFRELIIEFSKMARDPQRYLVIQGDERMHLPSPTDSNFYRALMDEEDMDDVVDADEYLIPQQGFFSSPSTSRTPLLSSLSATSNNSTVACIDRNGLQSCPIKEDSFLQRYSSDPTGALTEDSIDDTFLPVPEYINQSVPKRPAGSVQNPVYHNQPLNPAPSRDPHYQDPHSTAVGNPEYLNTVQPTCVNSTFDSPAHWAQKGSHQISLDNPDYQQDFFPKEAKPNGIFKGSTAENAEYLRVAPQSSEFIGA

## CN(C)C/C=C/C(=O)Nc1cc2c(Nc3ccc(F)c(Cl)c3)ncnc2cc1OC(F)F [Compound Ie]
[1]
  IC50: 0.65 nM
[2]
  IC50: 11 nM
[3]
  IC50: 0.652 µM
[4]
  IC50: 3.72 µM
[5]
  IC50: 0.034 µM
[6]
  IC50: 3.24 µM
[7]
  IC50: 0.539 µM
[8]
  IC50: 0.8 µM
[9]
  IC50: 2.65 µM
[10]
  IC50: 0.002 µM
[11]
  IC50: 0.23 µM
[12]; rat, in vivo
  reversibility of toxicity reaction after drug withdrawal: reversible
[12]; rat, in vivo, 1 mg/kg
  toxicity reaction: no toxicity reaction
[12]; rat, in vivo, 3 mg/kg
  toxicity reaction: no toxicity reaction
[12]; rats, oral, 28 days
  AUC relative to Afatinib in the same dosage: about 5 times
[12]; rats, 1, 3 and 10 mg/kg groups
  time after drug withdrawal until weight close to control group: 5 to 6 days
[12]; rats, compound Ie 1, 3 and 10 mg/kg groups
  weight recovery after drug withdrawal: regain weight very quickly
